Patent US11661421B2, “Indolizine compounds, preparation method and use thereof” (HAIHE BIOPHARMA CO., LTD., priority 2018, dated 2023)

Molecular target: T1, PRC2 complex (EZH2 Y641F/EED/SUZ12/RbAp48/AEBP2) histone methyltransferase (Homo sapiens, UniProt Q15910, Y641F)
T1 construct: purchased Cisbio
Assay: PRC2 complex (EZH2 Y641F) activity assay, HTRF
Type: biochemical
Conditions: H3(1-50) K27me1 substrate, SAM, 4 h at room temperature, read-out: IC50 (EZH2_Y641F)
Text: PRC2 Complex (Ezh2y641f) Activity Assay of the Compounds:
Test Method: Homogeneous Time-Resolved Fluorescence (HTRF)
Materials: PRC2 complex (EZH2 Y641F/EED/SUZ12/RbAp48/AEBP2) histone methyltransferase used in the test was purchased from Cisbio; substrate H3(1-50) K27me1 was a product of GL Biochem; methyl donor S-(5′-Adenosyl)-L-methionine chloride dihydrochloride (SAM) was purchased from Sigma-aldrich; Eu-labeled H3K27me3, Streptavidin-XL665 and the buffer used in the test were purchased from Cisbio.
Experiment method: PRC2 complex (EZH2 Y641F/EED/SUZ12/RbAp48/AEBP2), H3(1-50)me1 substrate, methyl donor SAM and the test compound were added to each well to reach a total of 10 μL reaction system and reacted in dark at room temperature for 4h. 5 μL of Eu-labeled H3K27 Me3 antibody and 5 μL of Streptavidin-XL665 were added to each well, mixed uniformly, and incubated at room temperature for 1 h. The fluorescence values at 620 nm and 665 nm were measured with a multi-label microplate analysis system (PerkinElmer Envision), and the HTRF signal ratio (665 nm/620 nm) was calculated for each well. The IC50 values of the compounds were calculated using SoftMax Pro 5.4.1 software.

T1 sequence (Q15910 whole entry Y641F): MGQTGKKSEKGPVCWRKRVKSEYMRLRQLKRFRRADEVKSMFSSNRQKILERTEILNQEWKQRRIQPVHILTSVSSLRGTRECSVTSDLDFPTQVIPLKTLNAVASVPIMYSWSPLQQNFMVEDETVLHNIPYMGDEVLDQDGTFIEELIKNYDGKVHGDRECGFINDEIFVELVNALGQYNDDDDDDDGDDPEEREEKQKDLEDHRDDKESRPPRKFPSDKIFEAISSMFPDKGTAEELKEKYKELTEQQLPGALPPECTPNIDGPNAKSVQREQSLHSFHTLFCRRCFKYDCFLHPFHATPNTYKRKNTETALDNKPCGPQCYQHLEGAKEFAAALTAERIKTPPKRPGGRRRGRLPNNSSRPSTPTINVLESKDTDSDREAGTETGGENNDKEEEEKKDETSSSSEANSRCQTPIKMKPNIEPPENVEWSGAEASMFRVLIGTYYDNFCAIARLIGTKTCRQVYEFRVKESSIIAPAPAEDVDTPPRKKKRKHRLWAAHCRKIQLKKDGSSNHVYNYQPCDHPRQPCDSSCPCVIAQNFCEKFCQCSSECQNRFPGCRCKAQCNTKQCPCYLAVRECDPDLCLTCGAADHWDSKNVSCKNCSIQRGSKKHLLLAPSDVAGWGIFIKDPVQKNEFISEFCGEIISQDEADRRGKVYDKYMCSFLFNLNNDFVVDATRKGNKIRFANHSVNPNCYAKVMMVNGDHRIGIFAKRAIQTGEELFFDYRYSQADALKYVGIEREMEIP
T1 sequence (O75530 whole entry partner): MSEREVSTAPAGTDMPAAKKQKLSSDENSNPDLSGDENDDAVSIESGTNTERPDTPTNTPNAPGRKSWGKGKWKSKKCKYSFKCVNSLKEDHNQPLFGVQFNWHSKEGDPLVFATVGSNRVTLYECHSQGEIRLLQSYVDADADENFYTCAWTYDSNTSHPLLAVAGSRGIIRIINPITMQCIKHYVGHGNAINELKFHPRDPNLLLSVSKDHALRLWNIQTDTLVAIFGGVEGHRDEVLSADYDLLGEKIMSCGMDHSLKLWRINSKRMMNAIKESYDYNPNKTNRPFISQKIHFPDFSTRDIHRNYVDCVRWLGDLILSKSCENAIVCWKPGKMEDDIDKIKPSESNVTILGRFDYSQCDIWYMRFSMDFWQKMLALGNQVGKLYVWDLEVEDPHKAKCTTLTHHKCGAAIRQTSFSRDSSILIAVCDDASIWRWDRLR
T1 sequence (Q15022 whole entry partner): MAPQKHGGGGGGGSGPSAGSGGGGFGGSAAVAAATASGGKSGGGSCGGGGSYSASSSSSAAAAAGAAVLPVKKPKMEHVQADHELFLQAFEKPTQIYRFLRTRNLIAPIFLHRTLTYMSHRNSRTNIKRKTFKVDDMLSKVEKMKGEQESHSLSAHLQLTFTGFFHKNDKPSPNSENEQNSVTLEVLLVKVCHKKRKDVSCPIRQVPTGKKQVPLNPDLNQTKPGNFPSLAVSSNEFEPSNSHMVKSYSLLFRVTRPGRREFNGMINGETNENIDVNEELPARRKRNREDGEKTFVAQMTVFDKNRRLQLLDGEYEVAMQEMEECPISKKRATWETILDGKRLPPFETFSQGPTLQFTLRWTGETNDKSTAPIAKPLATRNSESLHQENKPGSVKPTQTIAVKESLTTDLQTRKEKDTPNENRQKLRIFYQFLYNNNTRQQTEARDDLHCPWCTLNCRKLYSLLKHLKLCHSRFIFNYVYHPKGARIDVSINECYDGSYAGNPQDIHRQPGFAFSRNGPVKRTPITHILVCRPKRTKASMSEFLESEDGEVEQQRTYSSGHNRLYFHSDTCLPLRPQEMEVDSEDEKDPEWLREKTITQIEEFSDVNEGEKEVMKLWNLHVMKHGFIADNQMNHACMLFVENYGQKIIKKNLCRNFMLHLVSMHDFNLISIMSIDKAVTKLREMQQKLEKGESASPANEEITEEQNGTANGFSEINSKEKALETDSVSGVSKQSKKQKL
T1 sequence (Q09028 whole entry partner): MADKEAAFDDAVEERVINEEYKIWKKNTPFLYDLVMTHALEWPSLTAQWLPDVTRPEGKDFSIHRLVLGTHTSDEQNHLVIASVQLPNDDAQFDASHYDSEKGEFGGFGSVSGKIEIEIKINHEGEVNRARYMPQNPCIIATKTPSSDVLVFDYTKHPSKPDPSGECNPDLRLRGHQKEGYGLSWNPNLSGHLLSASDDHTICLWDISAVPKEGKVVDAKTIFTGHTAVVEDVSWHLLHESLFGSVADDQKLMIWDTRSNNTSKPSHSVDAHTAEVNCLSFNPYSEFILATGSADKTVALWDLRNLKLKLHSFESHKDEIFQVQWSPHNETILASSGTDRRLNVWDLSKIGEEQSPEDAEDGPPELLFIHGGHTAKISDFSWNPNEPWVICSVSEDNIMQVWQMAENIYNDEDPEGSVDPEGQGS
T1 sequence (Q6ZN18 whole entry partner): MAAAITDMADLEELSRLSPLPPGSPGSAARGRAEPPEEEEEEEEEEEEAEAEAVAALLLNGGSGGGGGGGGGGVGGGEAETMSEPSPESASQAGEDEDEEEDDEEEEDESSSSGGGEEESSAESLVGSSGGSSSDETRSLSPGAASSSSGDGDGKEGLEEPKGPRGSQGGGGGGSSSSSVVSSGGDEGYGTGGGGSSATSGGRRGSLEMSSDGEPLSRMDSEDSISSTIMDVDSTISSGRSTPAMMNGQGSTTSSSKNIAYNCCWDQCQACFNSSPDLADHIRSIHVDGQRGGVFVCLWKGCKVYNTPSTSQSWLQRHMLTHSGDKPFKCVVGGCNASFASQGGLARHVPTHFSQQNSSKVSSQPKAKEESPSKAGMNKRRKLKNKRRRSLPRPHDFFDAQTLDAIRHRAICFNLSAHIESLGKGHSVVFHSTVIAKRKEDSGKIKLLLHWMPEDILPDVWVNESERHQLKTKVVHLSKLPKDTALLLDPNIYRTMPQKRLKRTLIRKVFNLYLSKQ

SMILES | IC50
CC=C(c1c(C)c(C(=O)NCc2c(OC)cc(C)[nH]c2=O)cc2c(-c3ccnc(N(C)C)c3)ccn12)N1CCOCC1 [compound 1, 1-(2-(dimethylamino)pyridin-4-yl)-N-((4-methoxy-6-methyl-2-oxo-1,2-dihydropyridin-3-yl)methyl)-6-methyl-5-(1-morpholinylpropyl-1-en-1-yl)indolizine-7-formamide] | 11.4 nM
C=C(c1c(C)c(C(=O)NCc2c(OC)cc(C)[nH]c2=O)cc2c(-c3ccc(C)nn3)ccn12)N1CCN(CC(F)(F)F)CC1 [compound 3, N-((4-methoxy-6-methyl-2-oxo-1,2-dihydropyridin-3-yl)methyl)-6-methyl-1-(6-methylpyridazin-3-yl)-5-(1-(4-(2,2,2-trifluoroethyl)piperazin-1-yl)vinyl)indolizine-7-carboxamide] | 4.91 nM
COc1cc(C)[nH]c(=O)c1CNC(=O)c1cc2c(-c3ccnc(N(C)C)c3)ccn2c(C(C)=C2CCN(CC(F)(F)F)CC2)c1C [compound 4, 1-(2-(dimethylamino)pyridin-4-yl)-N-((4-methoxy-6-methyl-2-oxo-1,2-dihydropyridine-3-yl)methyl)-6-methyl-5-(1-(1-(2,2,2-trifluoroethyl)piperidin-4-alkenylene)ethyl)indolizine-7-formamide] | 8.82 nM
CNc1cc(-c2ccn3c(C(C)=C4CCN(CC(F)(F)F)CC4)c(C)c(C(=O)NCc4c(OC)cc(C)[nH]c4=O)cc23)ccn1 [compound 5, N-((4-methoxy-6-methyl-2-oxo-1,2-dihydropyridin-3-yl)methyl)-6-methyl-1-(2-(methylamino)pyridin-4-yl)-5-(1-(1-(2,2,2-trifluoroethyl)piperidin-4-alkenylene)ethyl)indolizine-7-carboxamide] | 6.73 nM
